Results: patent US4310590A (priority 1979, dated 1982)
Converted amounts (≈) assume the structure as drawn.

Experiments:
Helminthosporium teres = test: whole plant or invertebrate; type: in vivo; conditions: Pyrenophora teres, in Hordeum vulgare, read-out: Disease Control Level, BH
Staphylococcus aureus = test: Serial Dilution Test (Broth Titer Test), antibacterial, Staphylococcus aureus; type: cell-based
Procedure: (§1) Antibacterial and antifungal activity were evaluated by the Serial Dilution Test (Broth Titer Test) wherein a series of broths containing varying dilutions of a test compound and an organism are halved starting with 1:1,000. The values shown represent the maximum dilution in parts per million at which the compound under evaluation renders complete control of the organism. Pseudomonas aeruginosa (P), Staphylococcus aureus (S), and Escherichia coli (E) were the bacterial organisms employed in this test, and the fungi employed were Aspergillus niger (A) and Rhizopus stolonifer (R).
(§2) ^a In vitro serial dilution test (SDT), minimum inhibitory
(§3) concentrations (MIC) against E = E. coli, P = Ps. aeruginosa, S =
(§4) Staphylococcus aureus, A = A. niger, and R = Rhizopus stolonifer are give
(§5) in parts per million of a biocide.

Plasmopora viticola = test: whole plant or invertebrate; type: in vivo; conditions: for pest or weed control at 38 ppm / pest or weed control at 75 ppm / pest or weed control at 300 ppm: read-out: Disease Control Level, GDM
[1] = system: Puccinia graminis f. sp. tritici; test: whole plant or invertebrate; type: in vivo, Puccinia graminis f. sp. tritici race 15B-2; conditions: for Disease Control Level, WSR: 150 ppm, wheat seedlings
Piricularia oryzae = test: whole plant or invertebrate; type: in vivo; conditions: for Disease Control Level, RB: 150 ppm
Erysiphe polygoni = test: whole plant or invertebrate; type: in vivo; conditions: read-out: Disease Control Level, BPM
Botrytis cinerea = test: whole plant or invertebrate; type: in vivo; conditions: for Disease Control Level, BOT: 150 ppm; for pest or weed control at 38 ppm / pest or weed control at 75 ppm / pest or weed control at 300 ppm: Botrytis cinerea, read-out: Disease Control Level, BOT
Phytophthora infestans = test: whole plant or invertebrate; type: in vivo
Ps. aeruginosa = test: Serial Dilution Test (Broth Titer Test), antibacterial, Ps. aeruginosa; type: cell-based, Pseudomonas aeruginosa; conditions: for MIC: Pseudomonas aeruginosa, read-out: SDT, MIC
Procedure: as §1, §2, §3, §4, §5

A. niger = test: Serial Dilution Test (Broth Titer Test), antifungal, A. niger; type: cell-based, Aspergillus niger; conditions: in vitro serial dilution test; for MIC: Aspergillus niger, read-out: SDT, MIC
Procedure: as §1, §2, §3, §4, §5

E. coli = test: Serial Dilution Test (Broth Titer Test), antibacterial, E. coli; type: cell-based, Escherichia coli; conditions: for MIC: Escherichia coli, read-out: SDT, MIC
Procedure: as §1, §2, §3, §4, §5

Rhizopus stolonifer = test: Serial Dilution Test (Broth Titer Test), antifungal, Rhizopus stolonifer; type: cell-based; conditions: in vitro serial dilution test; R = Rhizopus stolonifer
Procedure: as §1, §2, §3, §4, §5

[2] = Puccinia graminis, read-out: Disease Control Level, WSR
[3] = Pyricularia oryzae, read-out: Disease Control Level, RB
[4] = Phytophthora infestans, in Solanum lycopersicum, read-out: Disease Control Level, TLB

Cn1sc(SC(=S)N2CCCC2)cc1=O [Example 13, 2-Methyl-5-[N,N-tetramethylenethiocarbamoyl]thio-4-isothiazolin-3-one]
pest or weed control at 300 ppm (Helminthosporium teres): 50%
MIC (Staphylococcus aureus; Staphylococcus aureus, read-out: SDT, MIC): > 500 µg/mL
pest or weed control at 38 ppm (Plasmopora viticola): 97 to 100%
pest or weed control at 75 ppm (Plasmopora viticola): 97 to 100%
Disease Control Level, GDM (Plasmopora viticola; 150 ppm): A/E
pest or weed control at 300 ppm (Plasmopora viticola): 97 to 100%
Disease Control Level, WSR [1]: C/E
pest or weed control at 38 ppm [1, 2]: 70 to 89%
pest or weed control at 75 ppm [1, 2]: 70 to 89%
pest or weed control at 300 ppm [1, 2]: 90 to 96%
Disease Control Level, RB (Piricularia oryzae): A/E
pest or weed control at 38 ppm (Piricularia oryzae; [3]): 90 to 96%
pest or weed control at 75 ppm (Piricularia oryzae; [3]): 90 to 96%
pest or weed control at 300 ppm (Piricularia oryzae; [3]): 90 to 96%
pest or weed control at 300 ppm (Erysiphe polygoni): 50%
Disease Control Level, BOT (Botrytis cinerea): A/E
pest or weed control at 38 ppm (Botrytis cinerea): 70 to 89%
pest or weed control at 75 ppm (Botrytis cinerea): 70 to 89%
pest or weed control at 300 ppm (Botrytis cinerea): 97 to 100%
Disease Control Level, TLB (Phytophthora infestans; 150 ppm, tomato seedlings): A/E
pest or weed control at 38 ppm (Phytophthora infestans; [4]): 50%
pest or weed control at 75 ppm (Phytophthora infestans; [4]): 90 to 96%
pest or weed control at 300 ppm (Phytophthora infestans; [4]): 90 to 96%

Cc1c(SC(=S)N(C)C)sn(-c2ccccc2)c1=O [Example 2, 5-(N,N-Dimethylthiocarbamoyl)thio-4-methyl-2-phenyl-4-isothiazolin-3-one]
MIC (Ps. aeruginosa): > 500 µg/mL
pest or weed control at 300 ppm (Helminthosporium teres): 50%
MIC (A. niger): 500 µg/mL (≈ 1610 µM)
pest or weed control at 300 ppm (Plasmopora viticola): 50%
pest or weed control at 300 ppm [1, 2]: 70 to 89%
Disease Control Level, RB (Piricularia oryzae): A/E
pest or weed control at 38 ppm (Piricularia oryzae; [3]): 90 to 96%
pest or weed control at 75 ppm (Piricularia oryzae; [3]): 90 to 96%
pest or weed control at 300 ppm (Erysiphe polygoni): 50%
Disease Control Level, BOT (Botrytis cinerea): B/C
pest or weed control at 38 ppm (Botrytis cinerea): 70 to 89%
pest or weed control at 75 ppm (Botrytis cinerea): 90 to 96%
pest or weed control at 300 ppm (Botrytis cinerea): 90 to 96%
pest or weed control at 300 ppm (Phytophthora infestans; [4]): 50%
MIC (E. coli): 500 µg/mL (≈ 1610 µM)

Cc1c(SC(=S)N(C)C)sn(-c2ccc(Br)cc2)c1=O [Example 8]
SDT, MIC (Ps. aeruginosa; in vitro serial dilution test, P = Ps. aeruginosa): 500 PPM
SDT, MIC (A. niger): 500 PPM
SDT, MIC (Staphylococcus aureus; in vitro serial dilution test, S = Staphylococcus aureus): 500 PPM
Disease Control Level, GDM (Plasmopora viticola; 150 ppm): A/B
Disease Control Level, WSR [1]: C/C
Disease Control Level, RB (Piricularia oryzae): A/E
SDT, MIC (Rhizopus stolonifer): 250 PPM
SDT, MIC (E. coli; in vitro serial dilution test, E = E. coli): 500 PPM

CN(C)C(=S)Sc1cc(=O)n(C)s1 [Example 5]
MIC (Ps. aeruginosa): > 500 µg/mL
pest or weed control at 19 ppm (Helminthosporium teres; 19 ppm): 50%
pest or weed control at 38 ppm (Helminthosporium teres; 38 ppm): 50%
pest or weed control at 75 ppm (Helminthosporium teres; 75 ppm): 50%
pest or weed control at 150 ppm (Helminthosporium teres; 150 ppm): 50%
pest or weed control at 300 ppm (Helminthosporium teres): 97 to 100%
MIC (A. niger): 125 µg/mL (≈ 533 µM)
Disease Control Level, GDM (Plasmopora viticola; 19 ppm): C/E
pest or weed control at 38 ppm (Plasmopora viticola): 97 to 100%
pest or weed control at 75 ppm (Plasmopora viticola): 97 to 100%
Disease Control Level, GDM (Plasmopora viticola; 150 ppm): A/A
pest or weed control at 300 ppm (Plasmopora viticola): 90 to 96%
Disease Control Level, WSR [1]: C/E
pest or weed control at 75 ppm [1, 2]: 50%
pest or weed control at 300 ppm [1, 2]: 90 to 96%
Disease Control Level, RB (Piricularia oryzae): A/E
pest or weed control at 19 ppm (Piricularia oryzae; [3]): 97 to 100%
pest or weed control at 38 ppm (Piricularia oryzae; [3]): 97 to 100%
pest or weed control at 75 ppm (Piricularia oryzae; [3]): 97 to 100%
pest or weed control at 300 ppm (Erysiphe polygoni): 50%
Disease Control Level, BOT (Botrytis cinerea): A/C
pest or weed control at 38 ppm (Botrytis cinerea): 90 to 96%
pest or weed control at 75 ppm (Botrytis cinerea): 97 to 100%
pest or weed control at 300 ppm (Botrytis cinerea): 90 to 96%
pest or weed control at 300 ppm (Phytophthora infestans; [4]): 50%
MIC (E. coli): 500 µg/mL (≈ 2130 µM)
